≈ marks a conversion by molar mass, not a printed value.
Legend:
C. neoformans = assay: In vitro antimycotic activity, macromethod of scalar broth dilutions (YNB); assay type: cell-based; settings: Cryptococcus neoformans; C. neoformans; YNB, incubation at 35°C for 48 hours; read-out: IC50
Procedure: (§1) The determination of the activity inhibiting the growth of mycetes was evaluated by the macromethod of scalar brothdilutions in geometrical progression (M.R. McGinnis and M.G. Rinaldi, "Antifungal drugs: mechanisms of action, drug resistance, susceptibility testing and assay of activity in biological fluids", in Antibiotic in Laboratory Medicine, Ed. V. Lorian, Baltimora 1991).
(§2) As culture media Yeast Nitrogen Base broth (YNB) and Sabouraud Dextrose broth (SDB) were used for yeasts and moulds, respectively.
(§3) The results obtained in SDB (after incubation at 28°C for 7 days) were expressed as minimum inhibiting concentrations (MIC) the growth of mycetes, while those obtained in YNB (after incubation at 35°C for 48 hours) were expressed as concentrations able to inhibit at 50% (IC50) the growth of the yeast.
(§4) As reference compounds Fluconazole, Itraconazole and Genaconazole were used.

A. fumigatus = assay: In vitro antimycotic activity, macromethod of scalar broth dilutions (SDB); assay type: cell-based; settings: Aspergillus fumigatus, 168 h
Procedure: as §1, §2, §3, §4

Candida albicans 1040 = assay: In vivo antimycotic activity in mice experimentally infected by C. albicans, oral route; parameters: species or system Charles River white mice (CD1 strain); settings: for PD50 at 8th day / PD50 at 14th day: oral route, probits analysis; for PD50 at 8th day: 8 days from the infection; for PD50 at 14th day: 14 days from the infection
Procedure: Charles River white mice (CD1 strain) weighing from 23 to 25 g, normo-feeded with standard diet and water ad libitum were used.
A suspension (0.2 ml containing 2.5x10^7 cells/ml) of Candida albicans 1040 in physiologic solution was injected to each animal by venous route. Immediately after the infection and after 4, 24 and 48 hours, the animals received by oral route (in arabic gum at 2%) doses increasing in a geometrical progression of the compound to be tested. The infected group was used as control.
The observation of the mortality of the mice was prolonged up to 14 days. From the number of survived animals for each concentration the average protective dose (DP50) was calculated by probits analysis (L.Lison - "Statistica applicata alla biologia sperimentale. La programmazione dell'esperimento e l'analisi dei risultati" - Casa Editrice Ambrosiana, 1961).
Compounds R1 and R2 were used as comparative compounds.
Fluconazole and Itraconazole were used as reference compounds.

T.mentagrophytes = assay: In vitro antimycotic activity, macromethod of scalar broth dilutions (SDB); assay type: cell-based, Trychophyton mentagrophytes; settings: Trichophyton mentagrophytes, 168 h; T.mentagrophytes; SDB, incubation at 28°C for 7 days; read-out: MIC
Procedure: as §1, §2, §3, §4

[1] = test system: C. spp * (5) (C. parapsilosis, lusitaniae, kefyr); assay: In vitro antimycotic activity, strain panel (Table 2); assay type: cell-based; settings: Lodderomyces parapsilosis, C. parapsilosis, lusitaniae, kefyr, 5 strains; for MIC50: read-out: MIC50; for MIC90: read-out: MIC90
Procedure: as §1, §2, §3, §4
(§5) Note to the table: MIC expressed as µg/ml Within brackets the number of tested strains Table 3

C. albicans (7) = assay: as above; assay type: cell-based; settings: Candida albicans, C. albicans, 7 strains; for MIC50: read-out: MIC50; for MIC90: read-out: MIC90
Procedure: as §1, §2, §3, §4, §5

B. capitatus (1) = assay: as above; assay type: cell-based; settings: Magnusiomyces capitatus; B. capitatus, 1 strain; single value under head MIC50 MIC90; read-out: MIC
Procedure: as §1, §2, §3, §4, §5

C. tropicalis (2) = assay: as above; assay type: cell-based; settings: Candida tropicalis; C. tropicalis, 2 strains; single value or range printed under head MIC50 MIC90; read-out: MIC
Procedure: as §1, §2, §3, §4, §5

C. neoformans (4) = assay: as above; assay type: cell-based; settings: Cryptococcus neoformans, C. neoformans, 4 strains; for MIC50: read-out: MIC50; for MIC90: read-out: MIC90
Procedure: as §1, §2, §3, §4, §5

Trichosporon sp. (1) = assay: as above; assay type: cell-based; settings: Trichosporon sp., 1 strain; single value under head MIC50 MIC90; read-out: MIC
Procedure: as §1, §2, §3, §4, §5

C. albicans 1040 = assay: In vitro antimycotic activity, macromethod of scalar broth dilutions (YNB); assay type: cell-based, Candida albicans; settings: Candida albicans; C. albicans 1040; YNB, incubation at 35°C for 48 hours; read-out: IC50
Procedure: as §1, §2, §3, §4

Fusarium sp = assay: In vitro antimycotic activity against recently isolated Fusarium strains (Tables 2 and 3); assay type: cell-based; settings: for In vitro antimycotic activity: quantity and unit not given in Table 3
Procedure: as §1, §2, §3, §4, §5

C. krusei (2) = assay: In vitro antimycotic activity, strain panel (Table 2); assay type: cell-based, Candida krusei; settings: Pichia kudriavzevii; C. krusei, 2 strains; range printed under head MIC50 MIC90; read-out: MIC
Procedure: as §1, §2, §3, §4, §5

A. niger = assay: In vitro antimycotic activity against recently isolated Aspergillus niger (Table 3); assay type: cell-based; settings: A. niger strain 94-6222; quantity and unit not given in Table 3
Procedure: as §1, §2, §3, §4

In the case of `OC(Cn1cncn1)(Cn1cncn1)c1ccc(F)cc1F` [Fluconazole, reference compound], the IC50 (C. neoformans) is reported as 2 µg/mL (≈ 6.53 µM), the MIC (A. fumigatus) is reported as over 128 µg/mL and the “PD50 at 8th day” value (Candida albicans 1040) is reported as 0.125 mg/kg/os. The “PD50 at 14th day” value (Candida albicans 1040) was 0.61 mg/kg/os, the MIC (T.mentagrophytes) was 16 µg/mL (≈ 52.2 µM) and the MIC50 [1] was 1 µg/mL (≈ 3.27 µM). It also gave an MIC90 [1] of 2 µg/mL (≈ 6.53 µM), an MIC50 (C. albicans (7)) of 4 µg/mL (≈ 13.1 µM) and an MIC90 (C. albicans (7)) of 32 µg/mL (≈ 104 µM). For the same molecule, the MIC (B. capitatus (1)) was 4 µg/mL (≈ 13.1 µM), the MIC (C. tropicalis (2)) was 4 to 16 µg/mL (≈ 13.1 to 52.2 µM) and the MIC50 (C. neoformans (4)) was 1 µg/mL (≈ 3.27 µM). For the same molecule, the MIC90 (C. neoformans (4)) was 32 µg/mL (≈ 104 µM), the MIC (Trichosporon sp. (1)) was 32 µg/mL (≈ 104 µM) and the IC50 (C. albicans 1040) was 0.5 µg/mL (≈ 1.63 µM).

`C[C@H]([C@](O)(Cn1cncn1)c1ccc(F)cc1F)S(C)(=O)=O` [Genaconazole, (2R,3R) α-(2,4-difluorophenyl)-α-[1-(methylsulfonyl)ethyl]-1H-1,2,4-triazol-1-ethanol, reference compound] was tested, and the MIC (Fusarium sp; Fusarium) was 64 µg/mL (≈ 193 µM), the “In vitro antimycotic activity” value (Fusarium sp; Fusarium sp strain 81-256) was 64 and the MIC (C. krusei (2)) was 16 to 32 µg/mL (≈ 48.3 to 96.6 µM). For the same molecule, the “In vitro antimycotic activity” value (A. niger) was 32, the MIC50 [1] was 0.5 µg/mL (≈ 1.51 µM) and the MIC90 [1] was 1 µg/mL (≈ 3.02 µM). For the same molecule, the MIC50 (C. albicans (7)) was 2 µg/mL (≈ 6.04 µM), the MIC90 (C. albicans (7)) was 32 µg/mL (≈ 96.6 µM) and the MIC (B. capitatus (1)) was 16 µg/mL (≈ 48.3 µM). For the same molecule, the MIC (C. tropicalis (2)) was over 64 µg/mL, the MIC50 (C. neoformans (4)) was 8 µg/mL (≈ 24.1 µM) and the MIC90 (C. neoformans (4)) was 16 µg/mL (≈ 48.3 µM). It also gave an MIC (Trichosporon sp. (1)) of 32 µg/mL (≈ 96.6 µM).

`CCC(C)n1ncn(-c2ccc(N3CCN(c4ccc(OCC5COC(Cn6cncn6)(c6ccc(Cl)cc6Cl)O5)cc4)CC3)cc2)c1=O` (stereo not drawn) [Itraconazole, reference compound] was tested, and the “In vitro antimycotic activity” value (Fusarium sp; Fusarium sp strain 81-256) was 2, the “In vitro antimycotic activity” value (Fusarium sp; Fusarium sp strain 86-3369) was 2-16 and the “In vitro antimycotic activity” value (Fusarium sp; Fusarium sp strain 88-2116) was 2-8. For the same molecule, the “In vitro antimycotic activity” value (Fusarium sp; Fusarium sp strain 946301) was 2-16, the “% percentage of survival after day 3” value (Candida albicans 1040; mice infected by C. albicans, dose 25 mg/kg/os, day 3) was 100% and the “% percentage of survival after day 6” value (Candida albicans 1040; mice infected by C. albicans, dose 25 mg/kg/os, day 6) was 100%. For the same molecule, the “PD50 at 8th day” value (Candida albicans 1040) was 2.31 mg/kg/os, the “PD50 at 14th day” value (Candida albicans 1040) was over 8 mg/kg/os and the MIC (C. krusei (2)) was 0.03 to 0.12 µg/mL (≈ 0.0425 to 0.17 µM). For the same molecule, the “In vitro antimycotic activity” value (A. niger) was at most 0.03, the MIC50 [1] was at most 0.03 µg/mL and the MIC90 [1] was 0.06 µg/mL (≈ 0.085 µM). It also gave an MIC50 (C. albicans (7)) of 0.06 µg/mL (≈ 0.085 µM), an MIC90 (C. albicans (7)) of 0.12 µg/mL (≈ 0.17 µM) and an MIC (C. tropicalis (2)) of 0.1 µg/mL (≈ 0.142 µM). For the same molecule, the MIC50 (C. neoformans (4)) was at most 0.03 µg/mL and the MIC90 (C. neoformans (4)) was 0.1 µg/mL (≈ 0.142 µM).
